# “Also recorded” adds a separate entry of the source. Where two headings read alike, the source gives them in different places.
# How the values were obtained:
# [1] = Formulation trials for intravenous application (Experiment 8); assay type: physicochemical
# Method: Um die Testergebnisse aus Experiment 7 in einem in-vivo Xenograft Modell zu bestätigen, wurden Formulierungsversuche mit Verbindungen nach Beispiel 1 sowie der Verbindung nach Beispiel 2 aus DE 1 793 1 15, als den wirksamsten Verbindungen aus Experiment 7, unternommen.
# 15mg der Verbindung nach Beispiel 1 werden in 30µL DMSO ([…]) gelöst. Diese Stocklösung wird in 270µL 1 M Na2CO3 Lösung gegeben und nur leicht geschwenkt, nicht aber mittels Ultraschallbad behandelt.
# Gleichermaßen sollte eine Formulierung für Verbindungen nach Beispiel 2 aus DE 1 7 93 1 15 hergestellt werden. Hier wurden 15µL der Verbindung nach Beispiel 2 vorgelegt. Bei einer Dichte von 1,08g/ml entsprach dies 16,2mg der Verbindung nach Beispiel 2. Dazu wurden 32,4µL DMSO gegeben. […] Sodann wurden 90µL einer frisch hergestellten 1 molaren Na2CO3 Lösung vorgelegt und 10µL der Lösung der Verbindung nach Beispiel 2 hinzugegeben. […] Auch mittels Ultraschallbad konnte keine Auflösung des erzeugten Niederschlags herbeiführen.
# CEM = experiment: Growth inhibition (IC50) in leukaemic CEM cells (Experiment 7); assay type: cell-based; settings: Homo sapiens, CCRF-CEM, 24 Stunden
# Excerpt: Hämatologische Zellen (CEM, HL-60) wurden für 24 Stunden mit unterschiedlichen Dosen verschiedener Triazenverbindungen inkubiert, um die IC50 zu bestimmen.
# HepG2 [2] = experiment: Intracellular uptake of triazenes in HepG2 cells (Experiment 2); assay type: in vitro ADME; settings: HepG2, 50.000ng/ml, 10.000ng/ml O6-Benzylguanin, 2, 4 und 20 Stunden
# Method: (§1) Es wird gezeigt, dass Verbindungen nach Beispiel 1 schneller und in größerer Menge intrazellulär aufgenommen werden als die als Vergleichssubstanzen eingesetzten Verbindungen nach Präparat 2 und 5 (entsprechend Verbindungen nach Präparat 2 und Beispiel 2a jeweils der WO 2009/004060).
# (§2) Die getesteten Verbindungen wurden wie folgt gelöst: • Erfindungsgemäße Verbindung: • Beispiel 1: in 20 mg/ml DMSO
# (§3) Vergleichssubstanzen: • Präparat 2: in 50mg/ml DMSO, • Präparat 5: in 50mg/ml Wasser.
# (§4) Alle drei Substanzen wurden in einer Dosis von 50.000ng/ml auf 2 x 10^7 HepG2 und HCT-8 sowie 2 x 10^6-MDA-MB231 Zellen gegeben. Als Zellkulturmedium wurde 100% (MDA-MB231: 50%) fötales Kälberserum (FCS) verwendet. Zudem wurde bei den Versuchen mit HepG2 und HCT-8 noch 10.000ng/ml O6-Benzylguanin zugesetzt. Für den Versuch wurde die intrazelluläre Konzentration von Ausgangsprodukt und Metaboliten nach 2, 4 und 20 (HepG2), 2 und 3,5 und 20 Stunden (MDA-MB231) und 2,4, 24 und 48 Stunden (HCT-8) Inkubationszeit ermittelt. Alle drei Substanzen zeigten in Kontrollversuchen mit 100% FCS nach 40 Stunden metabolische Stabilität.
# HCT-8 = experiment: Intracellular uptake of triazenes in HCT-8 cells (Experiment 2); assay type: in vitro ADME; settings: HCT-8, 50.000ng/ml, 10.000ng/ml O6-Benzylguanin, first two time points (2, 4 Stunden)
# Method: as §1, §2, §3, §4
# HepG2 [3] = experiment: Intracellular metabolisation of triazenes in HepG2 cell culture (Experiment 1); assay type: in vitro ADME; settings: HepG2, 100nmol/ml, 100% FCS, binnen 6 Stunden
# Method: (§5) Es wird gezeigt, dass Verbindungen nach Beispiel 1 schneller und in größerer Menge intrazellulär metabolisiert werden als die als Vergleichssubstanzen eingesetzten Verbindungen nach Präparat 2 und 5 (entsprechend Verbindungen nach Präparat 2 und Beispiel 2a jeweils der WO 2009/004060).
# (§6) Die getesteten Verbindungen wurden wie folgt gelöst: • Erfindungsgemäße Verbindung: • Beispiel 1 : in 20 mg/ml DMSO
# as §3
# (§7) Alle drei Substanzen wurden äquimolar in einer Dosis von 100nmol/ml auf 1 x 10^7 HepG2 bzw. MCF-7-Zellen gegeben. Als Zellkulturmedium wurde 100% fötales Kälberserum (FCS) verwendet. Für den Versuch wurde der Gehalt aus Ausgangsprodukt und Metaboliten im Zellüberstand nach 1, 3 und 6 (HepG2) bzw. 1,3 und 20 Stunden (MCF-7) Inkubationszeit ermittelt. Alle drei Substanzen zeigten in Kontrollversuchen mit 100% FCS nach 40 Stunden metabolische Stabilität.
# MDA-MB231 = experiment: Cell cycle analysis by flow cytometry in MDA-MB231 (Experiment 9); assay type: cell-based; settings: MDA-MB231, incubated with IC50, nach 10 bzw. 24 Stunden
# Excerpt: (§8) Die Progression durch den Zellzyklus ist charakterisiert durch die mitotische Teilung (M-Phase) und der sich anschließenden Interphase, Die Interphase gliedert sich wiederum in die G1 -, S- und G2-Phase, In der G1-Phase beginnt die Zelle zu wachsen und es liegt ein vollständiger Chromosomensatz vor. In der S-Phase erfolgt die Replikation der DNA, wodurch an ihrem Ende der zweifache Chromosomensatz vorliegt. In der G2-Phase bereitet sich die Zelle auf die mitotische Teilung vor, an dessen Ende wieder der einfache Chromosomensatz vorhanden ist. Zusätzlich zu diesen Phasen kann eine sog. sub-G1-Phase vorliegen. Diese ist charakterisiert durch fragmentierte, apoptotische Zellen, die durch degradierte DNA charakterisiert ist. In welchem Stadium sich die Zelle befindet bzw. arretiert sein kann, lässt sich mittels Durchflusszytometrie bestimmen (Brockhoff et al. 2007; Lenz et al. 2007).
# (§9) Zellkulturen von MDA-MB231 bzw. HL-60 wurden mit der IC50 (MDA-MB231) bzw. IC90 (HL-60) der beiden Test-Substanzen für bis zu 72 Stunden inkubiert und auf die Zellzyklusentwicklung hin untersucht.
# HL-60 = experiment: Cell cycle analysis by flow cytometry in HL-60 (Experiment 9); assay type: cell-based
# Excerpt: as §8, §9
# MDA-MB231 Zellen = experiment: Intracellular uptake of triazenes in MDA-MB231 cells (Experiment 2); assay type: in vitro ADME; settings: MDA-MB231, 50.000ng/ml, 50% FCS, 2, 3,5 und 20 Stunden
# Method: as §1, §2, §3, §4
# [4] = system: MCF-7, MB-231, HepG2, HCT8, DU-145; experiment: IC50 of triazenes in various tumour cell lines (Experiment 3); assay type: cell-based
# Excerpt: Die nachfolgenden Experimente 3 und 4 zeigen, dass die erfindungsgemäßen neuen Triazenverbindungen eine vergleichbare Anti-Tumorwirkung (IC50) in zahlreichen Krebszelllinien wie der HepG2 (Leber), HCT8 (Darm), DU-145 (Prostata), MCF-7 und MDA-MB-231 (Brust) und MiaPaca-2 (Bauchspeicheldrüse) bei bis zu 100fach niedrigeren Konzentrationen zeigen als vergleichbare Triazene wie DTIC, TMZ oder Substanzen wie sie in der WO 2009/004060 und der DE 1 7931 1 5 beschrieben sind.
# Verschiedene Triazene wie erfindungsgemäße Verbindungen nach Beispiel 1, DTIC, TMZ sowie Verbindungen nach Präparat 2 und 5 (entsprechend Verbindungen nach Präparat 2 und Beispiel 2a jeweils der WO 2009/004060) sowie Verbindungen nach Beispiel 33 der DE1793115 wurden in DMSO bzw. Wasser gelöst.
# MCF-7-Zellen = experiment: Intracellular metabolisation of triazenes in MCF-7 cell culture (Experiment 1); assay type: in vitro ADME; settings: MCF-7, 100nmol/ml, 100% FCS
# Method: as §5, §6, §3, §7
smiles,measurement,setting,value
CN(C)N=Nc1ccc(C(=O)c2ccc(O)cc2)cc1 [Beispiel 1],Stabilität der gebrauchsfertigen Lösung,"[1]; 15mg in 30µL DMSO + 270µL 1 M Na2CO3, Raumtemperatur",unter Raumtemperatur stabil
same,Löslichkeit in der Formulierung,[1]; DMSO stock solution given into 1 M Na2CO3 Lösung,vollständig löst
same,stabile und verträgliche Formulierung,"[1]; Lösungsmittel wie Cremophor, PEG400, Tween80, Poloxamer",nicht erreicht werden konnte
same,IC50,"CEM; mean of Exp. 1-4, read-out: IC50 Mittelwert",22.8 µM
same,IC50,CEM; read-out: IC50 Exp. 1,23.4 µM
same,IC50,CEM; read-out: IC50 Exp. 2,29.7 µM
same,IC50,CEM; read-out: IC50 Exp. 3,23.8 µM
same,IC50,CEM; read-out: IC50 Exp. 4,14.1 µM
same,intrazelluläre Konzentration vs. Vergleichssubstanzen,HepG2 [2],deutlich schneller und in höheren Konzentrationen intrazellulär nachweisbar
same,intrazelluläre Konzentration vs. Vergleichssubstanzen,HCT-8,deutlich schneller und für die ersten beiden Messpunkte auch in höherer Konzentration intrazellulär nachweisbar
same,Ausgangssubstanz metabolisiert,HepG2 [3],28%
same,Zellzyklus,MDA-MB231,ausgeprägten G2 Arrest nach 10 bzw. 24 Stunden und massivem Zelltod (SubG1)
same,Zellen in der G1 Phase,"HL-60; HL-60, IC90, nach 24 Stunden",< 2%
same,eingesetzte Zellen tot,"HL-60; HL-60, IC90, nach 24 Stunden",~40%
same,Zellzyklus,"HL-60; HL-60, incubated with IC90, nach 12 bzw. 24 Stunden",ausgeprägten G2 Arrest
same,intrazelluläre Konzentration vs. Vergleichssubstanzen,MDA-MB231 Zellen,deutlich schneller und in höheren Konzentrationen intrazellulär nachweisbar
same,antitumorale Aktivität (IC50) compared with other triazenes,[4],deutlich wirksamer; also recorded: höhere antitumorale Aktivität
same,metabolisiert,MCF-7-Zellen; innerhalb von 1 Stunde,mehr als der Hälfte
same,metabolisiert,MCF-7-Zellen; nach 3 Stunden,vollständig metabolisiert

# Source: patent EP2557075A1, “New triazene compounds for treating cancer” (Trin Therapeutics GmbH, priority 2011, dated 2013)
